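Method: 48-hour compound exposure of cells in 96-well plates, five concentrations, linear interpolation of endpoints. The concentration for 50% growth inhibition is given as GI50. At the TGI there is no net growth.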

Test systems include A549 NSCLC; HCT-15 colon; IGROV1 ovarian; NCI-H23 lung; OVCAR-3 ovarian; SK-MEL-28 melanoma; SK-OV-3 ovarian; T-47D breast; UACC-62 melanoma; UO-31 renal.
Holding throughout (experiment): NCI tumour cell line growth inhibition, 48 h

On to `CCCCCCCC/C=C/CCCCCCCC(=O)OC[C@H]1O[C@@H](n2ccc(N)nc2=O)C(F)(F)[C@@H]1O`, for which the GI50 in the test on A549 NSCLC is < 0.0174 µM; in the test with HCT-15 colon it was 0.117 µM; in the test with IGROV1 ovarian it was 19 µM; in the test on NCI-H23 lung, < 0.0143 µM; in the test on OVCAR-3 ovarian it was 8.86 µM; with SK-MEL-28 melanoma it was > 51.1 µM. Also, the GI50 was 0.272 µM with SK-OV-3 ovarian, 0.152 µM with T-47D breast, 0.0331 µM with UACC-62 melanoma and < 0.0136 µM with UO-31 renal. Moreover, the TGI was > 70.1 µM in the test on A549 NSCLC; > 100 µM in the test with HCT-15 colon; > 100 µM in the test with IGROV1 ovarian; 21.1 µM with NCI-H23 lung; > 100 µM in the test on OVCAR-3 ovarian; > 100 µM in the test on SK-MEL-28 melanoma. The TGI is > 100 µM in the test with SK-OV-3 ovarian, > 100 µM with T-47D breast, > 100 µM in the test on UACC-62 melanoma and 0.125 µM in the test on UO-31 renal.

Consider `CCOC(=O)c1c(C)n(Cc2ccc(Cl)cc2Cl)c2c1c(CN(C)C)c(O)c1[nH]cnc12`, for which the GI50 with A549 NSCLC was 15.9 µM; with HCT-15 colon it was 15.5 µM; with IGROV1 ovarian, 17.1 µM; with NCI-H23 lung, 0.271 µM; in the test with OVCAR-3 ovarian it was 17.3 µM; in the test on SK-MEL-28 melanoma it was 20.9 µM. The GI50 is 27.3 µM in the test with SK-OV-3 ovarian, 3.55 µM in the test on T-47D breast and 18.9 µM in the test on UO-31 renal. The TGI was determined as 32.5 µM with A549 NSCLC; 28.9 µM in the test on HCT-15 colon; 31.5 µM in the test with IGROV1 ovarian; 5.95 µM in the test with NCI-H23 lung; 33.5 µM in the test with OVCAR-3 ovarian; 41 µM with SK-MEL-28 melanoma. For the same compound, the TGI turned out to be 43.6 µM in the test with SK-OV-3 ovarian, 15.2 µM in the test with T-47D breast and 36.5 µM with UO-31 renal.

As for `NCC1Nc2ccccc2[C@@H](O)C1O` (some centres undefined), the TGI with A549 NSCLC, with HCT-15 colon, in the test on IGROV1 ovarian, with NCI-H23 lung, in the test on OVCAR-3 ovarian and in the test with SK-MEL-28 melanoma was > 100 µM each time. Also, the TGI with SK-OV-3 ovarian, with T-47D breast, with UACC-62 melanoma and in the test with UO-31 renal was > 100 µM throughout.

As for `COc1ccc(-c2n[nH]nc2-c2cc(OC)c(OC)c(OC)c2)cc1`, the GI50 with A549 NSCLC, in the test on HCT-15 colon, with IGROV1 ovarian, in the test on NCI-H23 lung, with OVCAR-3 ovarian and in the test with SK-OV-3 ovarian was < 0.01 µM each time. The GI50 is 2.66 µM in the test on T-47D breast, < 0.01 µM in the test with UACC-62 melanoma and 0.207 µM in the test with UO-31 renal. For the same compound, the TGI was 38.3 µM with A549 NSCLC; > 100 µM in the test with HCT-15 colon; 9.23 µM in the test on IGROV1 ovarian; 36.4 µM in the test with NCI-H23 lung; < 0.01 µM in the test on OVCAR-3 ovarian; 0.44 µM with SK-OV-3 ovarian. The TGI in the test with T-47D breast worked out at 57.3 µM; in the test on UACC-62 melanoma, 24.6 µM; in the test with UO-31 renal, 28 µM.

Take `CC(=O)/C(C)=N/NC(=O)c1ccccc1O`: the GI50 is > 100 µM in the test with A549 NSCLC; > 10 µM in the test on HCT-15 colon; > 10 µM in the test with IGROV1 ovarian; > 100 µM in the test on NCI-H23 lung; > 10 µM in the test on OVCAR-3 ovarian; > 100 µM with SK-MEL-28 melanoma. For the same compound, the GI50 with SK-OV-3 ovarian is > 100 µM; in the test on UACC-62 melanoma it was > 10 µM. Also, the TGI in the test on A549 NSCLC, in the test with HCT-15 colon, in the test on IGROV1 ovarian, in the test on NCI-H23 lung, in the test on OVCAR-3 ovarian and in the test with SK-MEL-28 melanoma was > 100 µM each time. In addition, the TGI is > 100 µM in the test on SK-OV-3 ovarian, > 100 µM in the test with T-47D breast, > 100 µM with UACC-62 melanoma and > 10 µM in the test on UO-31 renal.

As to `Oc1cccnc1CN1CCCCC1`, the TGI in the test with A549 NSCLC, with HCT-15 colon, in the test on IGROV1 ovarian, in the test with NCI-H23 lung, with OVCAR-3 ovarian and in the test on SK-MEL-28 melanoma was > 100 µM in each case. In addition, the TGI with SK-OV-3 ovarian, with T-47D breast, in the test on UACC-62 melanoma and with UO-31 renal was > 100 µM in each case.

For `COc1ccc(Nc2c3ccccc3nc3occc23)cc1`, the GI50 was 3.26 µM in the test on A549 NSCLC; 0.336 µM in the test on HCT-15 colon; 7.66 µM with IGROV1 ovarian; 3.72 µM in the test on NCI-H23 lung; 0.366 µM with OVCAR-3 ovarian; 3.06 µM in the test on SK-MEL-28 melanoma. Further, the GI50 in the test on SK-OV-3 ovarian was 2.21 µM; with UACC-62 melanoma, 0.342 µM; in the test on UO-31 renal, 22.5 µM. Moreover, the TGI was 41.6 µM in the test with A549 NSCLC; 14.1 µM in the test on HCT-15 colon; > 100 µM in the test on IGROV1 ovarian; > 27.6 µM in the test on NCI-H23 lung; 4.2 µM with OVCAR-3 ovarian; 22.8 µM with SK-MEL-28 melanoma. Also, the TGI was 14.9 µM in the test on SK-OV-3 ovarian, > 38.2 µM in the test with T-47D breast and > 100 µM with UO-31 renal.

Take `O=C1OC(C(O)CO)C(=O)C1=O` (centres undefined): the GI50 with A549 NSCLC was 9790 µM; with HCT-15 colon, 3420 µM; with IGROV1 ovarian it was 2350 µM; in the test with NCI-H23 lung it was 4680 µM; in the test with SK-MEL-28 melanoma, > 10000 µM; in the test with SK-OV-3 ovarian, 2910 µM. The GI50 in the test on T-47D breast is 2790 µM; in the test with UACC-62 melanoma, 4330 µM; with UO-31 renal it was 1850 µM. Further, the TGI was > 10000 µM with A549 NSCLC; > 10000 µM in the test on HCT-15 colon; 5170 µM in the test with IGROV1 ovarian; > 10000 µM in the test on NCI-H23 lung; > 10000 µM with SK-MEL-28 melanoma; 7200 µM in the test on SK-OV-3 ovarian. Moreover, the TGI was 7700 µM in the test on T-47D breast, > 10000 µM in the test on UACC-62 melanoma and 4600 µM in the test with UO-31 renal.

In the case of `CN1c2ccc(Cl)cc2C(=O)NC1c1ccc([N+](=O)[O-])s1` (centres undefined), the TGI in the test on A549 NSCLC was found to be 92 µM; in the test on HCT-15 colon, 35.9 µM; in the test on IGROV1 ovarian, 31.5 µM; in the test on OVCAR-3 ovarian it was 31.4 µM; in the test with SK-MEL-28 melanoma, 43.7 µM; in the test on SK-OV-3 ovarian, 67.2 µM. Further, the TGI with T-47D breast was 55 µM; in the test with UACC-62 melanoma it was 26.3 µM; in the test on UO-31 renal it was 26.5 µM.

The record behind these values is PubChem BioAssay (NCI).
